The subject of one experiment is RENCA tumour cells. Nature of the experiment: Antitumor activity, RENCA model. It counts as in vivo, mouse. As to conditions: D18 and D22, compared to untreated and vehicle groups, FIG. 3B. Here is the method: Treatment schedule—The start of first dosing was considered as D0. On D0, non-engrafted mice were randomized according to their individual body weight into groups of 9 mice using Vivo manager® software (Biosystemes, Couternon, France). On D0, the mice received vehicle (culture medium) or bacterial strain (2×10^8 in 200 μL, PO). On D14, all mice were engrafted with RENCA tumour cells injected SC into the ventral surface of the lower flank as described below. Treatment with anti-CTLA-4 (10 mg/kg, IP) and anti-PDL1 (clone 10F.9G2, 10 mg/kg) was initiated when tumours reached a volume of 50-70 mm3.
Orthotopic induction of RENCA tumor cells in animals by SC injection—On D14, one million (1×10^6) RENCA tumor cells in 50 μL RPMI 1640 medium were transplanted via SC injection into the ventral surface of the lower flank of mice.
Euthanasia—Each mouse was euthanized when it reached a humane endpoint as described in section below, or after a maximum of 6 weeks post start of dosing.
Evaluation of tumour burden at euthanasia—At the time of termination, tumours were collected and their volume evaluated.
Clinical monitoring—The length and width of the tumour was measured twice a week with callipers and the volume of the tumour was estimated by this formula [52]: […]

In another experiment the test system is immature dendritic cells. The experiment in a line: Cytokine production in immature dendritic cells. As to conditions: MRX518 10^7/ml, LPS 100 ng/ml, FIGS. 4b, 4d. The format is cell-based. The procedure:
A monocyte population was isolated from peripheral blood mononuclear cells (PBMCs). The monocyte cells were subsequently differentiated into immature dendritic cells. The immature dendritic cells were plated out at 200,000 cells/well and incubated with MRX518 at a final concentration of 10^7/ml, with the optional addition of LPS at a final concentration of 100 ng/ml. The negative control involved incubating the cells with RPMI media alone and positive controls incubated the cells with LPS at a final concentration of 100 ng/ml. The cytokine content of the cells was then analysed.

Turning to `CC(=O)O[C@H]1C(=O)[C@@]2(C)[C@H]([C@H](OC(=O)c3ccccc3)[C@]3(O)C[C@H](OC(=O)[C@H](O)[C@@H](NC(=O)c4ccccc4)c4ccccc4)C(C)=C1C3(C)C)[C@]1(OC(C)=O)CO[C@@H]1C[C@@H]2O` [Paclitaxel], in the experiment with RENCA tumour cells, the “reduction in tumour size” value is “(almost) complete reduction in tumour size”.

In the case of lipopolysaccharide [LPS], the “level of IL-1β” value in the experiment on immature dendritic cells is recorded as “but not IL-1β”.

(Values after patent US20210060093A1, “COMBINATION THERAPY FOR TREATING OR PREVENTING CANCER” (4D Pharma Research Limited, priority 2018, published 2021).)
